How the values were obtained:
Format in all cases: in vivo
Amaranthus retroflexus [1] = experiment: Post-emergence herbicidal action, AMARE; conditions: 80 g/ha, Table D
Protocol: (§1) Seeds of monocotyledonous and dicotyledonous weed and crop plants are laid out in sandy loam soil in wood-fiber pots, covered with soil and cultivated in a greenhouse under good growth conditions. 2 to 3 weeks after sowing, the test plants are treated at the one-leaf stage. The compounds of the invention, formulated in the form of wettable powders (WP) or as emulsion concentrates (EC), are then sprayed onto the green parts of the plants in the form of an aqueous suspension or emulsion at a water application rate equating to […], with addition of 0.2% wetting agent. After the test plants have been left to stand in the greenhouse under optimal growth conditions for about 3 weeks, the action of the preparations is assessed visually in comparison to untreated controls (herbicidal action in percent (%): 100% activity=the plants have died, 0% activity=like control plants). […] At the same time, inventive compounds leave Gramineae crops such as barley, wheat, rye, millet/sorghum, corn or rice virtually undamaged when applied post-emergence, even at high active compound dosages. In addition, some substances are also harmless to dicotyledonous crops such as soya, cotton, oilseed rape, sugar beet or potatoes. Some of the compounds according to the invention have high selectivity and are therefore suitable for controlling unwanted vegetation in agricultural crops by the post-emergence method. The data of Tables C and D below illustrate, in an exemplary manner, the […] herbicidal action of the compounds according to the invention, the herbicidal activity being stated in percent.
(§2) For comparison, the herbicidal activity of numerous compounds according to the invention was tested with the structurally closest compounds known from the documents WO 2011/035874, WO 2012/028579 and WO 2012/126932, by the pre- and post-emergence method.

Alopecurus myosuroides [2] = experiment: Post-emergence herbicidal action, ALOMY; conditions: 80 g/ha, Table C
Protocol: as §1, §2

Stellaria media [3] = experiment: Post-emergence herbicidal action, STEME; conditions: 80 g/ha, Table D
Protocol: as §1, §2

ECHCG = experiment: Post-emergence herbicidal action, ECHCG; conditions: 80 g/ha, Table C
Protocol: as §1

Matricaria inodora = experiment: Pre-emergence herbicidal action, MATIN; conditions: dosage 320 g/ha, scored visually after 3 weeks vs untreated controls
From the text: (§3) 1. Pre-Emergence Herbicidal Action Against Harmful Plants Seeds of monocotyledonous and dicotyledonous weed plants and crop plants are laid out in sandy loam soil in wood-fiber pots and covered with soil. The compounds of the invention, formulated in the form of wettable powders (WP) or as emulsion concentrates (EC), are then applied to the surface of the covering soil in the form of an aqueous suspension or emulsion at a water application rate equating to […], with addition of 0.2% wetting agent. After the treatment, the pots are placed in a greenhouse and kept under good growth conditions for the trial plants. The damage to the test plants is scored visually after a test period of 3 weeks by comparison with untreated controls (herbicidal activity in percent (%): 100% activity=the plants have died, 0% activity=like control plants).
as §2

Alopecurus myosuroides [4] = experiment: Pre-emergence herbicidal action, ALOMY; conditions: dosage 320 g/ha, scored visually after 3 weeks vs untreated controls
From the text: as §3, §2

Abutilon theophrasti [5] = experiment: Post-emergence herbicidal action, ABUTH; conditions: 80 g/ha, Table D
Protocol: as §1, §2

Amaranthus retroflexus [6] = experiment: Pre-emergence herbicidal action, AMARE; conditions: dosage 320 g/ha, scored visually after 3 weeks vs untreated controls
From the text: as §3, §2

Abutilon theophrasti [7] = experiment: Pre-emergence herbicidal action, ABUTH; conditions: dosage 320 g/ha, scored visually after 3 weeks vs untreated controls
From the text: as §3, §2

Avena fatua [8] = experiment: Post-emergence herbicidal action, AVEFA; conditions: 80 g/ha, Table C
Protocol: as §1, §2

Stellaria media [9] = experiment: Pre-emergence herbicidal action, STEME; conditions: dosage 320 g/ha, scored visually after 3 weeks vs untreated controls
From the text: as §3, §2

Cyperus serotinus = experiment: Pre-emergence herbicidal action, CYPES; conditions: dosage 320 g/ha, scored visually after 3 weeks vs untreated controls
From the text: as §3, §2

Setaria viridis [10] = experiment: Pre-emergence herbicidal action, SETVI; conditions: dosage 320 g/ha, scored visually after 3 weeks vs untreated controls
From the text: as §3, §2

Viola tricolor [11] = experiment: Post-emergence herbicidal action, VIOTR; conditions: 80 g/ha, Table D
Protocol: as §1, §2

Viola tricolor [12] = experiment: Pre-emergence herbicidal action, VIOTR; conditions: dosage 320 g/ha, scored visually after 3 weeks vs untreated controls
From the text: as §3, §2

Setaria viridis [13] = experiment: Post-emergence herbicidal action, SETVI; conditions: 80 g/ha, Table C
Protocol: as §1, §2

Avena fatua [14] = experiment: Pre-emergence herbicidal action, AVEFA; conditions: dosage 320 g/ha, scored visually after 3 weeks vs untreated controls
From the text: as §3, §2

Pharbitis purpureum = experiment: Post-emergence herbicidal action, PHBPU; conditions: 80 g/ha, Table D
Protocol: as §1, §2

| Structure (SMILES) | herbicidal activity AMARE (Amaranthus retroflexus [1]) [%] | herbicidal activity ALOMY (Alopecurus myosuroides [2]) [%] | Herbicidal activity STEME (Stellaria media [3]) [%] | Herbicidal activity ECHCG (ECHCG) [%] | herbicidal activity MATIN (Matricaria inodora) [%] | herbicidal activity ALOMY (Alopecurus myosuroides [4]) [%] | herbicidal activity ABUTH (Abutilon theophrasti [5]) [%] | herbicidal activity AMARE (Amaranthus retroflexus [6]) [%] | herbicidal activity ABUTH (Abutilon theophrasti [7]) [%] | herbicidal activity AVEFA (Avena fatua [8]) [%] | Herbicidal activity STEME (Stellaria media [9]) [%] | herbicidal activity CYPES (Cyperus serotinus) [%] | herbicidal activity SETVI (Setaria viridis [10]) [%] | herbicidal activity VIOTR (Viola tricolor [11]) [%] | herbicidal activity VIOTR (Viola tricolor [12]) [%] | herbicidal activity SETVI (Setaria viridis [13]) [%] | herbicidal activity AVEFA (Avena fatua [14]) [%] | Herbicidal activity PHBPU (Pharbitis purpureum) [%] |
| --- | --- | --- | --- | --- | --- | --- | --- | --- | --- | --- | --- | --- | --- | --- | --- | --- | --- | --- |
| CCSc1c(C(F)F)ccc(C(=O)Nc2nnnn2C)c1CC [Example 1-16] | 100 | 90 | 100 | 90 | 100 | 100 | 100 | 100 | 100 | 90 | 100 | 100 | 100 | 100 | 100 | 90 | 100 |  |
| CCSc1c(C(F)F)ccc(C(=O)Nc2ncnn2C)c1Br [Example 4-64] | 100 | 100 | 100 | 100 | 100 | 90 | 100 | 100 | 100 | 100 | 100 |  | 100 | 100 | 100 | 100 | 100 | 100 |
| CCSc1c(C(F)F)ccc(C(=O)Nc2nnc(C)o2)c1C [Example 7-4] | 100 | 90 | 90 | 100 | 80 | 90 |  | 100 | 100 | 90 | 90 |  | 100 | 100 | 100 | 100 |  |  |
| CCS(=O)(=O)c1c(C(F)F)ccc(C(=O)Nc2nnnn2C)c1I [Example 1-78] | 100 | 90 | 100 | 100 | 100 | 100 | 80 | 100 | 100 | 80 |  | 100 | 100 | 90 | 100 | 100 | 100 | 100 |
| CCSc1c(C(F)F)ccc(C(=O)Nc2nnc(C)o2)c1Cl [Example 7-50] | 90 | 90 | 90 | 100 | 90 | 100 | 100 | 90 | 100 | 90 | 100 | 90 | 100 | 100 | 100 | 100 | 100 |  |
| CCn1nnnc1NC(=O)c1ccc(C(F)F)c(SC)c1C [Example 2-1] | 100 | 90 | 100 | 90 | 100 | 90 | 90 | 100 | 100 | 100 |  |  | 100 | 100 | 100 | 90 | 100 | 100 |
| CCS(=O)(=O)c1c(C(F)F)ccc(C(=O)Nc2nnc(C)o2)c1Br [Example 7-64] | 100 | 90 | 90 | 100 | 100 | 100 | 100 |  | 100 | 100 | 100 | 100 | 100 | 90 | 100 | 100 | 100 | 100 |
| CCCn1nnnc1NC(=O)c1ccc(C(F)F)c(SC)c1C [Example 3-1] | 100 | 90 | 100 | 100 | 100 | 100 | 100 | 100 | 100 | 100 | 100 |  | 100 | 100 | 100 | 100 | 100 | 90 |
| CCn1nnnc1NC(=O)c1ccc(C(F)F)c([S+](C)[O-])c1C (stereo not shown) [Example 2-2] | 80 | 90 | 100 | 90 | 100 | 100 | 90 | 100 | 100 | 90 |  | 90 | 100 | 100 | 100 | 100 | 100 | 90 |
| CCCn1nnnc1NC(=O)c1ccc(C(F)F)c(S(C)(=O)=O)c1C [Example 3-3] | 80 | 90 | 90 | 90 | 100 | 90 | 90 | 100 | 100 | 90 |  | 90 | 100 | 100 | 100 | 90 | 100 | 90 |

Reference: patent US20230183193A1, “4-DIFLUOROMETHYL BENZOYL AMIDES WITH HERBICIDAL ACTION” (BAYER CROPSCIENCE AKTIENGESELLSCHAFT, priority 2017, published 2023)
